Experimental findings from US20230365592A1 (Agios Pharmaceuticals, Inc., priority 2022, published 2023) are described below.

The test has as its target T1, human PAH with the R408W mutation (Homo sapiens, UniProt P00439, R408W).
T1 construct: expressed in transfected cells
T1 sequence (P00439 1-452 R408W): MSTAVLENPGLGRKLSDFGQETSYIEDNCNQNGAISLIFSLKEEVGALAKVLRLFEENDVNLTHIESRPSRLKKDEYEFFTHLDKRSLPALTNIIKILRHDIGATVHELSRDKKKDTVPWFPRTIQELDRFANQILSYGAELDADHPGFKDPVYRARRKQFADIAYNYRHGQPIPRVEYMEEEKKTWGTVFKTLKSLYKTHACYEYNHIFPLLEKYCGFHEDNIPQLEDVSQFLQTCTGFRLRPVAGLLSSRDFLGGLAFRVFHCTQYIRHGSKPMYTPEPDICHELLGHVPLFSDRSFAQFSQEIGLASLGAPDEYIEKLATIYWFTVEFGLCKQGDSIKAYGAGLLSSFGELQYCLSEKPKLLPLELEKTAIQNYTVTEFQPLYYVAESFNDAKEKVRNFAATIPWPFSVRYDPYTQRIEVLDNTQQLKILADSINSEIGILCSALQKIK
The test is described as follows: Cell Based Phenylalanine Flux Assay.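 Further: after compound treatment, cells received sepiapterin plus isotope-labelled Phenylalanine for 4 hours, then labelled Tyrosine in the medium was quantified, 10-point 2-fold dilution series run in duplicate.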 As to conditions: A375 cells expressing R408W PAH; 24 hrs with compound, then 20 µM sepiapterin and 800 µM 13C9,15N-Phenylalanine for 4 hours; 13C-Tyrosine by LC-MS; average where tested multiple times; read-out: AC50.
By AC50 is commonly meant the concentration giving half of the maximal activity seen. Turning to `CC(C)(F)c1nnc(C(=O)N2CCc3[nH]cnc3C2c2cc3ccccn3n2)o1` (centres unmarked) [listing 1 of 2 here], the AC50 lay in the range of 1 to 5 µM.

In the case of `c1cncc(-c2nnc(N3CCc4[nH]cnc4C3c3cc4ccccn4n3)o2)c1` (centres unmarked) [listing 1 of 2 here], the AC50 is greater than 5 µM.

`c1cc(C2CC2)c2cc(C3c4nc[nH]c4CCN3c3nnc(-c4ccncn4)o3)nn2c1` (centres unmarked): the half-maximal activity concentration (AC50) was greater than 5 µM.

As to `Cc1cccn2nc(C3c4nc[nH]c4CCN3c3nnc(-c4ccncn4)o3)cc12` (centres unmarked) [listing 1 of 2 here], the AC50 is greater than 5 µM.

`c1ccn2nc(C3c4nc[nH]c4CCN3c3nnc(-c4ccncn4)o3)cc2c1` (centres unmarked) [listing 1 of 2 here]: the AC50 is greater than 5 µM.

Regarding `Cn1cc(-c2ncc(C(=O)N3CCc4[nH]cnc4C3c3cc4c(F)cccn4n3)o2)cn1` (centres unmarked) [listing 1 of 2 here], the AC50 was greater than 5 µM.

In the case of `Cn1ncnc1C(=O)N1CCc2[nH]cnc2C1c1cc2ccccn2n1` (centres unmarked), the half-maximal activity concentration (AC50) lay in the range of 1 to 5 µM.

As to `CC1(c2nnc(N3CCc4[nH]cnc4C3c3cc4c(C(F)(F)F)cccn4n3)o2)CC1` (centres unmarked), the AC50 lay in the range of 1 to 5 µM.

Consider `CC(C)(F)c1nnc(N2CCc3[nH]cnc3C2c2cc3c(C(F)(F)F)cccn3n2)o1` (centres unmarked), for which the concentration at half-maximal activity (AC50) is greater than 5 µM.

As to `Cc1cccn2nc(C3c4nc[nH]c4CCN3c3nnc(C(C)(C)F)o3)cc12` (centres unmarked), the AC50 was greater than 5 µM.

As for `CC(C)(F)c1nnc(C(=O)N2CCc3[nH]cnc3C2c2cc3ccccn3n2)o1` (centres unmarked) [listing 2 of 2 here], the AC50 fell in the range of 1 to 5 µM.

`O=C(C1CN(c2ccccn2)C1)N1CCc2[nH]cnc2C1c1cc2ccccn2n1` (centres unmarked): the AC50 fell in the range of 1 to 5 µM.

`Cc1nnc(N2CCc3[nH]cnc3C2c2cc3c(OC(F)F)cccn3n2)o1` (centres unmarked): the AC50 was 1 to 5 µM.

Regarding `CC(C)(F)c1nnc(N2CCc3[nH]cnc3C2c2cc3c(C(F)F)cccn3n2)o1` (centres unmarked), the AC50 was greater than 5 µM.

For `CC1(c2nnc(N3CCc4[nH]cnc4C3c3cc4c(C(F)F)cccn4n3)o2)CC1` (centres unmarked), the half-maximal activity concentration (AC50) was in the range of 1 to 5 µM.

As to `FC(F)c1cccn2nc(C3c4nc[nH]c4CCN3c3nnc(-c4ncccn4)o3)cc12` (centres unmarked), the AC50 was 1 to 5 µM.

With `FC(F)c1cccn2nc(C3c4nc[nH]c4CCN3c3nnc(-c4cnccn4)o3)cc12` (centres unmarked), the AC50 lay in the range of 1 to 5 µM.

Turning to `c1cc(C2CC2)c2cc(C3c4nc[nH]c4CCN3c3nnc(-c4cnccn4)o3)nn2c1` (centres unmarked), the concentration at half-maximal activity (AC50) lay within 1 to 5 µM.

In the case of `Fc1cccn2nc(C3c4nc[nH]c4CCN3c3nnc(-c4ncccn4)o3)cc12` (centres unmarked), the AC50 was in the range of 1 to 5 µM.

With `c1cnc(-c2nnc(N3CCc4[nH]cnc4C3c3cc4ccccn4n3)o2)nc1` (centres unmarked), the AC50 was in the range of 1 to 5 µM.

For the compound `c1ccn2nc(C3c4nc[nH]c4CCN3c3nnc(-c4cnccn4)o3)cc2c1` (centres unmarked), the AC50 was 1 to 5 µM.

As for `FC(F)c1cccn2nc(C3c4nc[nH]c4CCN3c3nnc(-c4cccnn4)o3)cc12` (centres unmarked), the AC50 lay in the range of 1 to 5 µM.

For the compound `FC(F)(F)c1cccn2nc(C3c4nc[nH]c4CCN3c3nnc(-c4cccnn4)o3)cc12` (centres unmarked), the half-maximal activity concentration (AC50) is 1 to 5 µM.

Regarding `c1cnnc(-c2nnc(N3CCc4[nH]cnc4C3c3cc4c(C5CC5)cccn4n3)o2)c1` (centres unmarked), the AC50 fell in the range of 1 to 5 µM.

Turning to `Cc1cccn2nc(C3c4nc[nH]c4CCN3c3nnc(-c4cccnn4)o3)cc12` (centres unmarked), the AC50 lay within 1 to 5 µM.

Turning to `c1cnnc(-c2nnc(N3CCc4[nH]cnc4C3c3cc4ccccn4n3)o2)c1` (centres unmarked), the AC50 lay within 1 to 5 µM.

On to `c1cncc(-c2nnc(N3CCc4[nH]cnc4C3c3cc4ccccn4n3)o2)c1` (centres unmarked) [listing 2 of 2 here], for which the AC50 fell in the range of 1 to 5 µM.

With `Cn1cc(N2CCc3[nH]cnc3C2c2cc3c(F)cccn3n2)cn1` (centres unmarked), the AC50 fell in the range of 1 to 5 µM.

With `Cc1cccn2nc(C3c4nc[nH]c4CCN3c3nnc(-c4ccncn4)o3)cc12` (centres unmarked) [listing 2 of 2 here], the half-maximal activity concentration (AC50) fell in the range of 1 to 5 µM.

In the case of `c1ccn2nc(C3c4nc[nH]c4CCN3c3nnc(-c4ccncn4)o3)cc2c1` (centres unmarked) [listing 2 of 2 here], the concentration at half-maximal activity (AC50) lay within 1 to 5 µM.

Turning to `Cn1ccc(-c2ncc(C(=O)N3CCc4[nH]cnc4C3c3cc4c(C(F)F)cccn4n3)o2)n1` (centres unmarked), the AC50 lay within 1 to 5 µM.

Regarding `Cn1cc(-c2ncc(C(=O)N3CCc4[nH]cnc4C3c3cc4c(C(F)F)cccn4n3)o2)cn1` (centres unmarked), the AC50 lay in the range of 1 to 5 µM.

On to `Cn1cc(-c2ncc(C(=O)N3CCc4[nH]cnc4C3c3cc4c(F)cccn4n3)o2)cn1` (centres unmarked) [listing 2 of 2 here], for which the AC50 is 1 to 5 µM.

Consider `Cc1cccn2nc(C3c4nc[nH]c4CCN3C(=O)C3CCC3)cc12` (centres unmarked), for which the AC50 is greater than 5 µM.

In the case of `O=C(C1CCC1)N1CCc2[nH]cnc2C1c1cc2ccccn2n1` (centres unmarked), the AC50 is greater than 5 µM.
